# Patent publication US11654198B2, “Application of combination of polyethylene glycol and local anesthetic in non-narcotic analgesia” (JENKEM TECHNOLOGY CO., LTD. (TIANJIN), priority 2016, dated 2023)
# Experiments:
# Type in all cases: in vivo
# SD rats [1] = assay: Hot plate paw withdrawal time, rat sciatica model, intervertebral disc compression (SNL) (Example 32); conditions: for time the analgesic effect can reach: conjugate 10/11/12 at 32/24/48 mg/kg
# From the text: (§1) Intervertebral disc compression (SNL): This model is a pathological form that simulates clinical disc herniation. The specific method is to remove the autogenous caudal intervertebral disc tissue (annulus fibrosus and nucleus pulposus) form the rats and place the caudal intervertebral disc tissue between the proximal nerve root of the L5 dorsal root ganglion and the lower vertebral body to directly compress the L5 nerve root, wherein damage to the L5 nerve root or dorsal root ganglion should be avoided during the operation. 3 to 15 days after the model is successful, rats develop significant hyperalgesia, so the administration time we chose is between 3 days and 15 days.
# (§2) Qualified rats are randomly divided into 5 groups, 6 rats in each group, which are labeled as groups G1, G2, G3, G4 and G5, respectively. Administration by intramuscular injection around sciatic nerve is adopted, and the grouping information of the experimental animals is shown in Table 11.
# (§3) Sensory block (hot plate paw withdrawal time): The sensory block of the rat is examined by a hot plate method, and the hot plate is heated to (56±1)° C., and one of the hind paws of the rat is placed on the hot plate, the other hind paw is in the laboratory room temperature condition, and the tested paw withdrawal time is observed and recorded. The average value of two to three times measured is recorded as a pain threshold. In order to avoid the damage of the experimental animal body, if the rat has no paw withdrawal in the hot plate experiment for more than 15 s, the paws should be removed from the hot plate, and the experimental result is recorded as 15 s. The time point for determining the withdrawal time of the hot plate is before administration, and 0.5 h, 1 h, 2 h, 4 h, 6 h, 8 h, 12 h, and 24 h after administration.
# SD rats [2] = assay: Motor block four-level score, rat sciatica model (SNL) (Example 32); design: key to motor function score: 1 = normal paw movement to 4 = complete loss, gait defect; conditions: for motor function score: bupivacaine 8, conjugate 10/11/12 32/24/48 mg/kg; for effect on motor function of SD rats: conjugate 10/11/12 at 32/24/48 mg/kg
# From the text: as §1, §2
# Motor block (four-level score): The exercise condition of each group of rats is evaluated by the motor block four-level scoring method. The scoring criteria are: paws can be dorsiflexed, stretched, valgus and other normal exercises, scored by 1 point; paws can be dorsiflexed, bendable or after the adduction, although the paws can be stretched, the stretching ability is weakened, scored by 2 points; the paw can perform dorsiflexion, but no longer has the ability to stretch, scored by 3 points; the paw completely loses the ability of dorsiflexion, curling and stretching, and the rats produce a gait defect, scored by 4 points. The time point for determining the withdrawal time of the hot plate is before administration, and 0.5 h, 1 h, 2 h, 4 h, 6 h, 8 h, 12 h, and 24 h after administration.
# SD rats [3] = assay: Hot plate paw withdrawal time, rat plantar incision model (Example 31); conditions: for time the analgesic effect can reach: conjugate 10/11/12 at 32/24/48 mg/kg
# Method: (§4) After SD rats inhale anesthesia (isoflurane), an incision of about 1 cm in length from the proximal end of the pelma to the toe is made: after the skin and fascia are cut, the plantar muscle is picked up with an ophthalmic forceps and cut longitudinally (maintaining the starting and ending point and attachment of muscles); pressing is carried out for hemostasis, physiological saline and test drugs are injected into the muscles of animal's legs, and then the pain threshold detection is performed by the hot plate method. Within 24 hours after the model is successful, the rats develop significant hyperalgesia. Qualified rats are randomly divided into 5 groups, 6 rats in each group, which are labeled as groups G1, G2, G3, G4 and G5, respectively. The plantar subcutaneous injection method for administration is used, and the grouping information of the experimental animals is shown in Table 8.
# as §3, with “determining the paw withdrawal time” for “determining the withdrawal time”
# SD rats [4] = assay: Motor block four-level score, rat plantar incision model (Example 31); design: key to motor function score: 1 = normal paw movement to 4 = complete loss of movement with gait defect; conditions: for motor function score: bupivacaine 8, conjugate 10/11/12 32/24/48 mg/kg; for effect on motor function of SD rats: conjugate 10/11/12 at 32/24/48 mg/kg
# Method: as §4
# Motor block (four-level score): The exercise condition of each group of rats is evaluated by the motor block four-level scoring method. The scoring criteria are: paws can be dorsiflexed, stretched, valgus and other normal exercises, scored by 1 point; paws can be dorsiflexed, bendable or after the adduction, although the paws can be stretched, the stretching ability is weakened, scored by 2 points; the paws can perform dorsiflexion, but no longer has the ability to stretch, scored by 3 points; the paws completely lose the ability of dorsiflexion, curling and stretching, and the rats produce a gait defect, scored by 4 points. The time point for measuring the motor block score is before administration, and 0.5 h, 1 h, 2 h, 4 h, 6 h, 8 h, 12 h, and 24 h after administration.
# [5] = 0 h (after surgery, before administration), bupivacaine 8, conjugate 10/11/12 32/24/48 mg/kg
# [6] = 0.5 h after intramuscular injection around sciatic nerve, bupivacaine 8, conjugate 10/11/12 32/24/48 mg/kg
# [7] = 1 h after intramuscular injection around sciatic nerve, bupivacaine 8, conjugate 10/11/12 32/24/48 mg/kg
# [8] = 2 h after intramuscular injection around sciatic nerve, bupivacaine 8, conjugate 10/11/12 32/24/48 mg/kg
# [9] = 4 h after intramuscular injection around sciatic nerve, bupivacaine 8, conjugate 10/11/12 32/24/48 mg/kg
# [10] = 6 h after intramuscular injection around sciatic nerve, bupivacaine 8, conjugate 10/11/12 32/24/48 mg/kg
# [11] = 8 h after intramuscular injection around sciatic nerve, bupivacaine 8, conjugate 10/11/12 32/24/48 mg/kg
# [12] = 12 h after intramuscular injection around sciatic nerve, bupivacaine 8, conjugate 10/11/12 32/24/48 mg/kg
# [13] = 24 h after intramuscular injection around sciatic nerve, bupivacaine 8, conjugate 10/11/12 32/24/48 mg/kg
# [14] = before surgery, bupivacaine 8, conjugate 10/11/12 32/24/48 mg/kg (as bupivacaine)
# [15] = 0.5 h after plantar subcutaneous injection, bupivacaine 8, conjugate 10/11/12 32/24/48 mg/kg
# [16] = 1 h after plantar subcutaneous injection, bupivacaine 8, conjugate 10/11/12 32/24/48 mg/kg
# [17] = 2 h after plantar subcutaneous injection, bupivacaine 8, conjugate 10/11/12 32/24/48 mg/kg
# [18] = 4 h after plantar subcutaneous injection, bupivacaine 8, conjugate 10/11/12 32/24/48 mg/kg
# [19] = 6 h after plantar subcutaneous injection, bupivacaine 8, conjugate 10/11/12 32/24/48 mg/kg
# [20] = 8 h after plantar subcutaneous injection, bupivacaine 8, conjugate 10/11/12 32/24/48 mg/kg
# [21] = 12 h after plantar subcutaneous injection, bupivacaine 8, conjugate 10/11/12 32/24/48 mg/kg
# [22] = 24 h after plantar subcutaneous injection, bupivacaine 8, conjugate 10/11/12 32/24/48 mg/kg
# [23] = base value before surgery, bupivacaine 8, conjugate 10/11/12 32/24/48 mg/kg (as bupivacaine)
# [24] = bupivacaine 8, conjugate 10/11/12 32/24/48 mg/kg
substance,measurement,setting,value
"8-Arm-PEG-Bupivacaine, 20K [bupivacaine conjugate 10]",hot plate paw withdrawal time,SD rats [1]; [5],2.41 s
same,hot plate paw withdrawal time,SD rats [1]; [6],6.52 s
same,hot plate paw withdrawal time,SD rats [1]; [7],10.12 s
same,hot plate paw withdrawal time,SD rats [1]; [8],11.43 s
same,hot plate paw withdrawal time,SD rats [1]; [9],9.83 s
same,hot plate paw withdrawal time,SD rats [1]; [10],8.10 s
same,hot plate paw withdrawal time,SD rats [1]; [11],6.91 s
same,hot plate paw withdrawal time,SD rats [1]; [12],1.96 s
same,hot plate paw withdrawal time,SD rats [1]; [13],2.18 s
same,hot plate paw withdrawal time,SD rats [1]; [14],4.98 s
same,time the analgesic effect can reach,SD rats [1],8 h
same,motor function score,SD rats [2]; 0.5 h,1 ± 0
same,motor function score,SD rats [2]; 1 h,1.75 ± 0.5
same,motor function score,SD rats [2]; 2 h,1.75 ± 0.5
same,motor function score,SD rats [2]; 4 h,1.75 ± 0.5
same,motor function score,SD rats [2]; 6 h,1.75 ± 0.5
same,motor function score,SD rats [2]; 8 h,1.75 ± 0.5
same,motor function score,SD rats [2]; 12 h,1 ± 0
same,motor function score,SD rats [2]; 24 h,1 ± 0
same,effect on motor function of SD rats,SD rats [2],does not affect the motor function
same,hot plate paw withdrawal time,SD rats [3]; [5],1.41 s
same,hot plate paw withdrawal time,SD rats [3]; [15],6.52 s
same,hot plate paw withdrawal time,SD rats [3]; [16],7.91 s
same,hot plate paw withdrawal time,SD rats [3]; [17],6.21 s
same,hot plate paw withdrawal time,SD rats [3]; [18],6.79 s
same,hot plate paw withdrawal time,SD rats [3]; [19],7.42 s
same,hot plate paw withdrawal time,SD rats [3]; [20],7.43 s
same,hot plate paw withdrawal time,SD rats [3]; [21],2.10 s
same,hot plate paw withdrawal time,SD rats [3]; [22],1.32 s
same,hot plate paw withdrawal time,SD rats [3]; [23],5.20 s
same,time the analgesic effect can reach,SD rats [3],8 h
same,motor function score,SD rats [4]; 0 h (before administration),1 ± 0
same,motor function score,SD rats [4]; 0.5 h,1 ± 0
same,motor function score,SD rats [4]; 1 h,1.75 ± 0.5
same,motor function score,SD rats [4]; 2 h,1.75 ± 0.5
same,motor function score,SD rats [4]; 4 h,1.75 ± 0.5
same,motor function score,SD rats [4]; 6 h,1.75 ± 0.5
same,motor function score,SD rats [4]; 8 h,1.75 ± 0.5
same,motor function score,SD rats [4]; 12 h,1 ± 0
same,motor function score,SD rats [4]; 24 h,1 ± 0
same,effect on motor function of SD rats,SD rats [4],does not affect the motor function
"8-Arm-PEG-Bupivacaine, 20K [bupivacaine conjugate 11]",hot plate paw withdrawal time,SD rats [1]; [5],2.14 s
same,hot plate paw withdrawal time,SD rats [1]; [6],7.43 s
same,hot plate paw withdrawal time,SD rats [1]; [7],8.49 s
same,hot plate paw withdrawal time,SD rats [1]; [8],9.10 s
same,hot plate paw withdrawal time,SD rats [1]; [9],8.31 s
same,hot plate paw withdrawal time,SD rats [1]; [10],7.10 s
same,hot plate paw withdrawal time,SD rats [1]; [11],1.97 s
same,hot plate paw withdrawal time,SD rats [1]; [12],2.71 s
same,hot plate paw withdrawal time,SD rats [1]; [13],2.76 s
same,hot plate paw withdrawal time,SD rats [1]; [14],5.15 s
same,time after administration at which hot plate paw withdrawal time is significantly higher than vehicle group,SD rats [1]; [24],≤ 6 h
same,time the analgesic effect can reach,SD rats [1],≥ 6 h
same,motor function score,SD rats [2]; 0.5 h,1 ± 0
same,motor function score,SD rats [2]; 1 h,1 ± 0
same,motor function score,SD rats [2]; 2 h,1 ± 0
same,motor function score,SD rats [2]; 4 h,1 ± 0
same,motor function score,SD rats [2]; 6 h,1 ± 0
same,motor function score,SD rats [2]; 8 h,1 ± 0
same,motor function score,SD rats [2]; 12 h,1 ± 0
same,motor function score,SD rats [2]; 24 h,1 ± 0
same,effect on motor function of SD rats,SD rats [2],does not affect the motor function
same,hot plate paw withdrawal time,SD rats [3]; [5],1.26 s
same,hot plate paw withdrawal time,SD rats [3]; [15],7.43 s
same,hot plate paw withdrawal time,SD rats [3]; [16],8.49 s
same,hot plate paw withdrawal time,SD rats [3]; [17],9.10 s
same,hot plate paw withdrawal time,SD rats [3]; [18],7.91 s
same,hot plate paw withdrawal time,SD rats [3]; [19],8.65 s
same,hot plate paw withdrawal time,SD rats [3]; [20],2.19 s
same,hot plate paw withdrawal time,SD rats [3]; [21],1.89 s
same,hot plate paw withdrawal time,SD rats [3]; [22],1.56 s
same,hot plate paw withdrawal time,SD rats [3]; [23],4.97 s
same,time after administration at which hot plate paw withdrawal time is significantly higher than vehicle group,SD rats [3]; [24],≤ 6 h
same,time the analgesic effect can reach,SD rats [3],≥ 6 h
same,motor function score,SD rats [4]; 0 h (before administration),1 ± 0
same,motor function score,SD rats [4]; 0.5 h,1 ± 0
same,motor function score,SD rats [4]; 1 h,1 ± 0
same,motor function score,SD rats [4]; 2 h,1 ± 0
same,motor function score,SD rats [4]; 4 h,1 ± 0
same,motor function score,SD rats [4]; 6 h,1 ± 0
same,motor function score,SD rats [4]; 8 h,1 ± 0
same,motor function score,SD rats [4]; 12 h,1 ± 0
same,motor function score,SD rats [4]; 24 h,1 ± 0
same,effect on motor function of SD rats,SD rats [4],does not affect the motor function
